In brackets after ≈: the same amount, converted by molar mass.
Columns and labels:
[1] = system: multidrug-resistant Klebsiella pneumoniae KR15-4 (KPC2); experiment: In vivo efficacy in mice systemically infected with multidrug-resistant Klebsiella pneumoniae KR15-4 (KPC2); settings: Kunming mice, intraperitoneal infection, drug s.c. 0.5 h and 4 h after infection, deaths over 7 days, Bliss method; for ED50: Klebsiella pneumoniae, read-out: ED50 Subcutaneous injection
Method: 4.1 Test strains: clinically isolated pathogenic multidrug-resistant Klebsiella pneumoniae KR15-4 (KPC2), provided by Sichuan Primed Shines Bio-tech Co., Ltd.
4.2 Test animals: Kunming mice, age: 4 to 5 weeks, weight: 18 to 22 g, half male, half female, SPF grade.
(§1) 4.3 Test methods: Mice were randomly divided into several groups, 5 mice for each group, half male and half female, and 4 doses for each test drug: 12.5, 25, 50 and 100 mg/kg. The mice were intraperitoneally injected with 0.5 mL of 3.0×10^6 CFU/mL bacterial suspension for each mouse, and subcutaneously injected with the drug at the designed dose 0.5 h and 4 h after infection. The subcutaneous injection volume was 0.2 ml/20 g mouse weight; the number of deaths in mice was observed and recorded for 7 consecutive days. According to the number of deaths in mice, the half effective dose ED50 was calculated according to the Bliss method using the DAS 1.0 software, edited by Sun Ruiyuan et al.

[2] = system: Escherichia coli (4 strains); experiment: MIC, broth microdilution, normal MH medium; assay type: cell-based; settings: clinical isolates (ESBLs)
Method: (§2) Supplier of the strains: all of the above strains were provided by Sichuan Primed Shines Bio-tech Co., Ltd. A single colony was isolated by streaking on agar plates for each strain prior to the experiment, and the cells freshly cultured at 37° C. overnight were appropriately diluted for the experiment.
(§3) Medium: MH liquid medium (OXOID).
(§4) Culture condition: cells were incubated at 35-37° C. for 16-18 h.
(§5) The broth microdilution method recommended by Clinical and Laboratory Standards Institute (CLSI), Performance Standards for Antimicrobial Susceptibility Testing; Twenty-Third Informational Supplement, M02-All, M07-A9 and M11-A8, 2013 was used to determine the MIC value of each test sample against each test strain in the normal MH medium and iron-deficient MH medium.
(§6) After diluting each sample to different concentrations with normal MH medium, 100 μl of each test sample solution at different concentrations was separately aspirated onto a 96-well sterile polystyrene plate. Drug solutions were added to the 1st to 10th well with the final concentrations of 16, 8, 4, 2, 1, 0.5, 0.25, 0.125, 0.06, and 0.03 mg/L in each well, respectively. The 11th well, as a blank control, was not added with drugs and bacteria. The 12th well, as a bacterial growth control, was added with bacteria but no drug.
(§7) The test bacterial liquid was adjusted to a bacterial suspension of 0.5 Mcfarland standard with physiological saline, and diluted with MH broth at 1:100, and then added to the drug solution so that a final concentration of the bacterial liquid was approximately 10^4 CFU/ml; 100 μl of the bacterial liquid was further added to each of the above wells (the total volume in each well is 200 μl), which was sealed and placed in a 35-37° C. incubator for 18-20 h for testing the result. The OD600 value was measured by a microplate reader, Minimal Inhibitory Concentration (MIC) of a drug is the lowest concentration of the drug which prevents growth of bacteria in the wells. 1.2.2 MIC in iron-deficient MH medium

[3] = system: Pseudomonas aeruginosa (4 strains); experiment: MIC, broth microdilution, normal MH medium; assay type: cell-based; settings: multidrug-resistant clinical isolates (integrator I, IMP4)
Method: as §2, §3, §4, §5, §6, §7

[4] = system: Acinetobacter baumannii (4 strains); experiment: MIC, broth microdilution, normal MH medium; assay type: cell-based
Method: as §2, §3, §4, §5, §6, §7

[5] = system: Escherichia coli ATCC 35218; experiment: MIC, broth microdilution, normal MH medium; assay type: cell-based; settings: for MIC: Escherichia coli, ATCC35218, quality control strain, read-out: Antibacterial activity MIC, Escherichia coli ATCC 35218
Method: (§8) Strain for quality control: Escherichia coli ATCC35218, purchased from National Center of Clinical Laboratory.
as §3, §4, §5, §6, §7

[6] = system: Klebsiella pneumoniae (4 strains); experiment: MIC, broth microdilution, normal MH medium; assay type: cell-based; settings: multi-drug resistant clinical isolates (KPC2)
Method: as §2, §3, §4, §5, §6
The OD600 value was measured by a microplate reader, Minimal Inhibitory Concentration (MIC) of a drug is the lowest concentration of the drug which prevents growth of bacteria in the wells. 1.2.2 MIC in iron-deficient MH medium

[7] = system: Escherichia coli ATCC 35218; experiment: MIC, broth microdilution, iron-deficient MH medium; assay type: cell-based; settings: iron-deficient MH medium (16 mg/L 2,2'-bipyridine); quality control strain
Method: as §8, §3, §4, §5
(§9) BPL was added to the normal MH medium to obtain a final concentration of 16 mg/L; According to the method in Section 1.2.1, 100 μl of each test sample solution at different concentrations was aspirated to the 1st to 10th well in a 96-well sterile polystyrene plate to obtain the final drug concentrations of 16, 8, 4, 2, 1, 0.5, 0.25, 0.125, 0.06, and 0.03 mg/L, respectively. Then, 100 μl of the test bacterial liquid was added to each well (200 μl per well), and the final concentration of the bacterial liquid was approximately 10^4 CFU/ml. After sealing, it was placed in a 35-37° C. incubator for 18-20 hours for testing the result. The OD600 value was measured by a microplate reader, Minimal Inhibitory Concentration (MIC) of a drug is the lowest concentration of the drug which prevents growth of bacteria in the wells.

[8] = system: Escherichia coli ECO-14-4 (ESBLs); experiment: In vivo efficacy in mice systemically infected with Escherichia coli ECO-14-4 (ESBLs); settings: Kunming mice, intraperitoneal infection, drug s.c. 0.5 h and 4 h after infection, deaths over 7 days, Bliss method
Method: 3.1 Test strains: Clinically isolated pathogenic Escherichia coli ECO-14-4 (ESBLs), supplied by Sichuan Primed Shines Bio-tech Co., Ltd.
3.2 Test animals: Kunming mice, age: 4 to 5 weeks, weight: 18 to 22 g, half male, half female, SPF grade.
as §1, with “3.3 Test methods:” for “4.3 Test methods:”, “female, and 5 doses for” for “female, and 4 doses for”, “test drug: 1.25, 2.5, 5, 10 and 20” for “test drug: 12.5, 25, 50 and 100”, “10 and 20 mg/kg. The” for “50 and 100 mg/kg. The”, “mL of […] CFU/mL bacterial” for “mL of 3.0×10^6 CFU/mL bacterial”

[9] = system: Klebsiella pneumoniae (4 strains); experiment: MIC, broth microdilution, iron-deficient MH medium; assay type: cell-based; settings: iron-deficient MH medium (16 mg/L 2,2'-bipyridine); multi-drug resistant clinical isolates (KPC2)
Method: as §2, §3, §4, §5, §9

[10] = system: Escherichia coli (4 strains); experiment: MIC, broth microdilution, iron-deficient MH medium; assay type: cell-based; settings: iron-deficient MH medium (16 mg/L 2,2'-bipyridine); clinical isolates (ESBLs)
Method: as §2, §3, §4, §5, §9

[11] = system: Pseudomonas aeruginosa (4 strains); experiment: MIC, broth microdilution, iron-deficient MH medium; assay type: cell-based; settings: iron-deficient MH medium (16 mg/L 2,2'-bipyridine); multidrug-resistant clinical isolates (integrator I, IMP4)
Method: as §2, §3, §4, §5, §9

[12] = system: Acinetobacter baumannii (4 strains); experiment: MIC, broth microdilution, iron-deficient MH medium; assay type: cell-based; settings: iron-deficient MH medium (16 mg/L 2,2'-bipyridine); multidrug-resistant clinical isolates (integron I, OXA23)
Method: as §2, §3, §4, §5, §9

| Structure (SMILES) | ED50 [1] | ED50 Subcutaneous injection [1] | MIC ([2]; Escherichia coli, read-out: Antibacterial activity MIC, Escherichia coli (4 strains)) | MIC ([3]; Pseudomonas aeruginosa, read-out: Antibacterial activity MIC, Pseudomonas aeruginosa (4 strains)) | MIC ([4]; Acinetobacter baumannii, read-out: Antibacterial activity MIC, Acinetobacter baumarmii (4 strains)) | MIC [5] | MIC ([6]; Klebsiella pneumoniae, read-out: Antibacterial activity MIC, Klebsiella pneumoniae (4 strains)) | Antibacterial activity MIC, Escherichia coli ATCC 35218 [7] | Antibacterial activity MIC, Escherichia coli (4 strains) [2] | Antibacterial activity MIC, Pseudomonas aeruginosa (4 strains) [3] | Antibacterial activity MIC, Acinetobacter baumarmii (4 strains) ([4]; normal MH medium, multidrug-resistant clinical isolates (integron I, OXA23)) | Antibacterial activity MIC, Escherichia coli ATCC 35218 ([5]; quality control strain) | Antibacterial activity MIC, Klebsiella pneumoniae (4 strains) [6] | ED50 Subcutaneous injection [8] | Antibacterial activity MIC, Klebsiella pneumoniae (4 strains) [9] | Antibacterial activity MIC, Escherichia coli (4 strains) [10] | Antibacterial activity MIC, Pseudomonas aeruginosa (4 strains) [11] | Antibacterial activity MIC, Acinetobacter baumannii (4 strains) [12] |
| --- | --- | --- | --- | --- | --- | --- | --- | --- | --- | --- | --- | --- | --- | --- | --- | --- | --- | --- |
| C[C@@H](O)[C@H]1C(=O)N2C(C(=O)O)=C(S[C@@H]3CN[C@H](C(=O)N(C)C)C3)[C@H](C)[C@H]12 [meropenem, reference compound] | > 100 mg/kg | >100 mg/kg | 0.25 to 32 µg/mL (≈ 0.652 to 83.4 µM) | 32 to 64 µg/mL (≈ 83.4 to 167 µM) | 64 µg/mL (≈ 167 µM) | 0.125 µg/mL (≈ 0.326 µM) | 32 to 64 µg/mL (≈ 83.4 to 167 µM) |  |  |  |  |  |  |  |  |  |  |  |
| CC1(C)[C@H](NC(=O)/C(=N\OCc2cc(=O)c(O)cn2O)c2csc(N)n2)C(=O)N1OS(=O)(=O)O [BAL30072, reference compound] |  |  |  |  |  |  |  | 0.06 µg/mL | 1 µg/mL | 2 µg/mL | 2 to 4 µg/mL | 0.125 µg/mL | ≥64 µg/mL | 4.19 mg/kg | ≥64 µg/mL | 0.25 to 1 µg/mL | 1 to 2 µg/mL | 1 to 2 µg/mL |
| C[C@H]1[C@H](NC(=O)/C(=N\OC(C)(C)C(=O)O)c2csc(N)n2)C(=O)N1S(=O)(=O)O [aztreonam, reference compound] | > 100 mg/kg | >100 mg/kg |  |  |  | 0.5 µg/mL (≈ 1.15 µM) |  |  |  |  |  |  |  |  |  |  |  |  |
